The subject of series [1] is lolitrem B toxicosis (Rye Grass Staggers). Nature of the series: Clinical and neurological signs in sheep fed lolitrem B-containing toxic feed with or without potassium bromide. Type of series: in vivo. As to the method:
Animals were exposed to a controlled diet containing 0.16 mg/kg body weight (BW) lolitrem B toxin rising to 0.27 mg/kg BW after 21 days exposure to toxic feed. Toxin was delivered as perennial rye grass seed (GA66 AR98, Grasslanz Technology Ltd, NZ) containing very high levels of lolitrem B toxin (11 ppm DM) as a component of the animal's feed intake.
On entry to the trial, all animals receiving toxic feed were exposed to a diet containing experimental ryegrass seed with a final lolitrem B concentration of 0.08 mg/kg LW, lucerne chaff and molasses 30% w/v for 3 days. After this induction period, the toxin content of the feed was increased to 0.16 mg/kg LW for the duration of the trial. […] Ryegrass seed constituted up to 65% of available Feed on Offer (FOO) by dry weight contributing a metabolisable energy of 12.1 Mj/kg DM.
At entry to the trial, all animals were subjected to a full clinical examination. Live weight was recorded. Venous blood and urine samples were collected for laboratory. Animals were also subjected to gait analysis, neurological examination including proprioceptive testing, cranial nerve examination and papillary light and menace reflexes. Electromyography (EMG) of tricep and neck muscles was performed. Gait analysis (see below) was repeated at three day intervals until onset of significant clinical signs and/or gait abnormality at which point animals were subjected to gait analysis daily. Gait analysis was recorded on video each occasion.
General clinical signs were also noted on a daily basis; these included observations of nervousness or agitation, changes in normal placement of body, limb or head position changes in faecal consistency, feeding behaviour or water consumption, observeable tremor of the body or head, eye position (strabismus) and movement (nystagmus), locomotory disturbances, or any other clinical changes worthy of note. Feed and water intake was monitored daily for the duration of the trial. Heart rate, respiration rate at rest and rectal temperature were also monitored daily.
Prophylactic sheep received a split loading dose of 300 mg/kg on day 1, 120 mg/kg (100 mg LD+20 mg/kg daily maintenance dose) on day 2, 120 mg/kg on day 3 and 20 mg/kg daily for the duration of the trial. An acute treatment dose of 300 mg/kg LW was used for the trial. Both prophylactic and acute treatment doses were envisaged to give serum concentrations of 750 to 1000 μg/ml for the duration of the initial weeks of the trial.
Group 1—Negative Control: lucerne chaff only;
Group 2—Positive Control: lucerne chaff containing 0.16 mg/kg LW lolitrem B;
Prophylactic treatment sheep (Groups 4 & 5) received a split loading dose of 300 mg/kg on day 1 of the trial, 120 mg/kg (100 mg LD 20 mg/kg daily maintenance dose) on day 2, 120 mg/kg on day 3 and 20 mg/kg daily thereafter. Acute therapy sheep were dosed with a single dose of 300 mg/kg on day of falling.
End of the trial was defined for Groups 2 and 3 as date of falling. Group 1 animals entered the end of trial protocol with their Group 2 counterparts. Group 4 and 5 animals entered the end of trial protocol after 22 days. This end of trial protocol consisted of the following analysis: • On Day 1: animals were subjected to a full clinical examination, gait analysis, urine and blood collection, neurological examination and EMG. • On Day 2: further gait analysis was recorded, • On Day 3: animals were again subjected to full clinical examination, gait analysis, urine and blood collection, neurological examination and EMG as well as live weight recorded prior to necropsy.

The next series relates to sheep. Nature of the series: Clinical pathology of serum and urine. In kind it is in vivo. The conditions noted are these: toxin only and acute treatment groups, not outside normal ranges. From the text: Venous blood samples collected for biochemical analysis and haematocrit (PCV), and urine for USG, at three specific time points during the experiment for all animals: 1) on entry to the trial; 2) on date of entry to the end of trial protocol and, 3) on day of necropsy. Additional venous blood samples were occasionally collected for analysis of serum bromide (see below).
For venous sampling, blood was collected from either the right or left jugular vein as determined by convenience and sampler preference. Needle hubs and sterile, single use 21 G needles and 10 mL Vacutainer® tubes were used for collection. Two Vacutainer® tube types were used for each animal: one containing a clot activator for serum collection, the other contained ethylenediamine tetra-acetic acid (EDTA) to prevent clotting. Tubes were inverted repetitively immediately after collection prior to storage on ice for transport to the laboratory. […]
Urine samples were collected by attachment of a clean plastic bag using SuperGlue™ to the fleece on either side of the preputial opening. […] Urine specific gravity (USG) was determined using a refractometer (VQ5600 refractometer, VetQuip, Australia).
Haematological and biochemical analysis was performed by the laboratory within 60 minutes of blood collection. Haematological analytes were measured using a CellDyn 3700 Haematology System (Abbott Diagnostics, Abbott Park, Ill., USA). […]

The next series concerns mice. Nature of the series: Lolitrem B intoxication in mice, tremor and movement analysis. As to conditions: lolitrem B 2 mg/kg IP. In kind it is in vivo. As to the method: FIG. 1. Tremor analysis of animals treated with a single dose of lolitrem B toxin. Tremor analysis: FFT frequency analysis from a mouse prior to (A) and 6 hours post lolitrem B injection 2 mg/kg i.p. (B). Low frequency (0-7 Hz) power output represents primarily movement. […] (D) Tremor-Motion power ratio at one hour post lolitrem B injection (n=4) and vehicle only control (n=4) (*p<0.05, lolitrem B (2 mg/kg i.p.) vs vehicle).
Lolitrem B was tested in mice to establish this as a suitable model for perennial ryegrass toxicosis and lolitrem B intoxication in grazing animals. […] These signs are consistent with clinical signs seen in grazing animals (See FIG. 1).

For series [2] the following is noted: PK studies performed prior to this trial (Combs and Edwards, personal communication); cited from earlier work.
The mark [3] stands for this setting: sheep, Group 2: toxic feed (lolitrem B 0.16 mg/kg LW), no treatment.
[4] abbreviates: sheep, Group 3: toxic feed plus single oral 300 mg/kg KBr on day of falling.
[5] abbreviates: sheep, Group 4: toxic feed plus prophylactic oral KBr (300, 120, 120 then 20 mg/kg daily), 22 days.
[6] abbreviates: sheep, Group 5: prophylactic oral KBr only, no toxic feed, 22 days.

Structures are written as SMILES. Marks after values point to notes of the source that are not given here.

Results on two molecules are retold here after patent US9913858B2, “Prevention and treatment of toxicosis” (priority 2013, dated 2018).

Turning to `CC(C)=C[C@H]1O[C@H]2[C@H]3O[C@@]34[C@H](CC[C@@]3(C)[C@@]4(O)CC[C@H]4Cc5c([nH]c6ccc7c(c56)C[C@@H]5[C@@H](C7=O)C(C)(C)OC5(C)C)[C@@]43C)O[C@@H]2C(C)(C)O1` [lolitrem B], the “time from Type 1 to Type 2 gait changes” value in series [1] (intoxicated sheep) is “approximately 9 days”. Moreover, in series [1] (lolitrem B intoxicated sheep), the Menace reflex entry is on record as “either lost or reduced” and the pupillary light reflex entry is “normal”. Moreover, in series [1] (sheep, Group 2 (toxin only)), the “Ventral strabismus, animals affected” value is listed as 9/9. Also, in series [1] (setting [3]), the “Altered stance, mean number of days to onset (+/−s.e.m.)” value (“Altered stance, mean number of days” below) was 11.78(+/−2.58) days; the “Altered stance, number of animals affected” value (shortened to “Altered stance, number”) was 9/9; the “Fine tremor, mean number of days to onset (+/−s.e.m.)” value (shortened to “Fine tremor, mean number of days”) is listed as 8.22(+/−2.58) days; the “Fine tremor, number of animals affected” value was 9/9. Also, in series [1] (setting [3]), the “First clinical signs, mean number of days to onset (+/−s.e.m.)” value (from here on “First clinical signs, mean number”) is recorded as 7.56(+/−2.06) days; the “First clinical signs, number of animals affected” value (from here on “First clinical signs, number”) is 9/9; the “Major body clonus, mean number of days to onset (+/−s.e.m.)” value (“Major body clonus, mean number of days” below) is 17.33(+/−3.51) days; the “Major body clonus, number of animals affected” value (from here on “Major body clonus, number”) is 3/9. Also, the “Ventral strabismus, animals affected” value in series [1] (sheep, Group 3 (toxin, acute KBr on day of falling)) is recorded as 7/9. Further, the “Ventral strabismus, animals affected” value in series [1] (sheep, Group 4 (toxin plus prophylactic KBr)) turned out to be 6. Moreover, the “Renal function (creatinine, urea)” value in the series on sheep is listed as “mildly compromised”. Besides, in the series on mice, the “distinctive tremor spike, frequency range” value is listed as 10-19 Hz and the movement entry is “decrease in movement”.
On to `[Br-].[K+]` [potassium bromide], for which, in series [1] (setting [4]), the “Altered stance, mean number of days” value was 10.22(+/−2.10) days; the “Altered stance, number” value is given as 9/9; the “Fine tremor, mean number of days” value was 12.43(+/−4.82) days; the “Fine tremor, number of animals affected” value is 7/9. In series [1] (setting [4]), the “First clinical signs, mean number” value is given as 8.56(+/−1.94) days; the “First clinical signs, number” value is recorded as 9/9; the “Major body clonus, mean number of days” value is on record as 11.67(+/−2.88) days; the “Major body clonus, number” value is given as 3/9. In series [1] (sheep, Group 4: toxic feed plus prophylactic oral KBr), the “animals showing evidence of mild anxiolysis” value is listed as “^aIncludes 4/9 animals showing evidence of mild anxiolysis”. In addition, in series [1] (setting [5]), the “Altered stance, mean number of days” value is 8.33(+/−1.22) days; the “Altered stance, number” value is recorded as 9/9; the “Fine tremor, mean number of days” value was 12.14(+/−4.45) days; the “Fine tremor, number of animals affected” value is given as 7/9. In series [1] (setting [5]), the “First clinical signs, mean number” value was 6.33(+/−1.73) days; the “First clinical signs, number” value was 9/9^a; the “Major body clonus, mean number of days” value is 10.67(+/−2.65) days; the “Major body clonus, number” value is 5/9. In addition, the “altered stance reported earlier than in toxin-only counterparts” value in series [1] (sheep, Group 4 versus Groups 2 and 3) was “approximately two”. Moreover, the “animals showing evidence of mild anxiolysis” value in series [1] (sheep, Group 5: prophylactic oral KBr only) was “^bIncludes 5/9 animals showing evidence of mild anxiolysis”. Further, in series [1] (setting [6]), the “Altered stance, mean number of days” value was 11.0(+/−4.69) days; the “Altered stance, number” value was 4/9; the “Fine tremor, mean number of days” value is given as 11.00(+/−0.0) days; the “Fine tremor, number of animals affected” value is listed as 1/9. Moreover, in series [1] (setting [6]), the “First clinical signs, mean number” value is 10.75(+/−4.46) days; the “First clinical signs, number” value is reported as 8/9^b; the “Major body clonus, mean number of days” value was 0 days; the “Major body clonus, number” value is 0/9. In addition, the “range of onset of mild mood changes” value in series [1] (sheep, potassium bromide at the prophylactic dose) was in the range of 4 to 17 days. Also, in series [2], the “time of peak serum bromide levels post administration” value was 6 h.
